Results as given in US4965280A, “Antifungal carbinols” (E. I. Du Pont de Nemours and Company, priority 1989, dated 1990).

Assays:
Assay in all cases: Test F
[1] = test system: GROUND CHERRY; assay type: in vivo, Physalis heterophylla
Description: (§1) Weed species were planted 3 or 4 per 15-cm diameter pot in Sassafras sandy loam (pH 6.8; 1% OM). Cotton was planted separately in the same sized pot. Postemergence plantings were made 12-16 days prior to treating so plants were in the 2- to 3-leaf stage (5-12 cm tall). Preemergence plantings were made the day before treating. Compounds were sprayed in a suitable non-phytotoxic solvent at 374 l/ha, then after 3 weeks of growth in a greenhouse, plant responses were visually rated on a percent scale where 0=no injury and 100=plant death.

[2] = test system: PRICKLY SIDA; assay type: in vivo, Sida spinosa
Description: as §1

[3] = test system: LAMBSQUARTER; assay type: in vivo, Chenopodium album
Description: as §1

[4] = test system: REDROOT PIGWEED; assay type: in vivo, Amaranthus retroflexus
Description: as §1

[5] = test system: FALL PANICUM; assay type: in vivo, Panicum dichotomiflorum
Description: as §1

C=C(c1ccc(F)cc1)C(O)(Cn1cncn1)c1ccc(F)cc1F (stereo not shown) [Example 4, 2-(2,4-Difluorophenyl)-3-(4-fluorophenyl)-1-(1H-1,2,4-triazol-1-yl)-3-buten-2-ol]
plant response ([1]; PREEMERGENCE 0032 GM/HA): 0%
plant response ([1]; PREEMERGENCE 0064 GM/HA): 0%
plant response ([1]; PREEMERGENCE 0125 GM/HA): 0%
plant response ([1]; PREEMERGENCE 0250 GM/HA): 0%
plant response ([1]; PREEMERGENCE 0500 GM/HA): 0%
plant response ([2]; PREEMERGENCE 0032 GM/HA): 0%
plant response ([2]; PREEMERGENCE 0064 GM/HA): 0%
plant response ([2]; PREEMERGENCE 0125 GM/HA): 0%
plant response ([2]; PREEMERGENCE 0250 GM/HA): 100%
plant response ([2]; PREEMERGENCE 0500 GM/HA): 90%
plant response ([3]; PREEMERGENCE 0032 GM/HA): 0%
plant response ([3]; PREEMERGENCE 0064 GM/HA): 20%
plant response ([3]; PREEMERGENCE 0125 GM/HA): 20%
plant response ([3]; PREEMERGENCE 0250 GM/HA): 60%
plant response ([3]; PREEMERGENCE 0500 GM/HA): 70%
plant response ([4]; PREEMERGENCE 0032 GM/HA): 50%
plant response ([4]; PREEMERGENCE 0064 GM/HA): 70%
plant response ([4]; PREEMERGENCE 0125 GM/HA): 60%
plant response ([4]; PREEMERGENCE 0250 GM/HA): 100%
plant response ([4]; PREEMERGENCE 0500 GM/HA): 100%
plant response ([5]; PREEMERGENCE 0032 GM/HA): 90%
plant response ([5]; PREEMERGENCE 0064 GM/HA): 90%
plant response ([5]; PREEMERGENCE 0125 GM/HA): 90%
plant response ([5]; PREEMERGENCE 0250 GM/HA): 100%
plant response ([5]; PREEMERGENCE 0500 GM/HA): 100%
